Like-named read-outs stand apart in the source and are kept apart here.
Tests used:
Puccinia triticina = test: Wheat Brown Rust (PUCCRT) fungicidal activity; format: in vivo; settings: for pest or weed control at 100 ppm: High Volume application; for pest or weed control at 121.5 g/ha: Low Volume application, 121.5 g/H
Procedure, shortened: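 Yuma wheat seedlings at first-leaf stage sprayed to run-off with acetone/water (Triton X-100) solutions, inoculated with P. triticina spores before or after treatment. Overnight dark dew at 22° C, then greenhouse at 24° C; percent disease control from severity versus untreated plants.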

Zymoseptoria tritici = test: Leaf Blotch of Wheat (SEPTTR) fungicidal activity; format: in vivo; settings: wheat leaf blotch; for pest or weed control at 100 ppm: High Volume application; for pest or weed control at 121.5 g/ha: Low Volume application, 121.5 g/H
Procedure, shortened: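 Wheat seedlings (Yuma, first leaf emerged) were sprayed to run-off with compound in acetone/water containing Triton X-100 and inoculated with Z. tritici spores before or after treatment. Percent disease control comes from 0–100% severity on treated versus untreated plants.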

[1] = 24 h, 1 day protectant, read-out: PUCCRT disease control, 1DP (1 Day Protectant)
[2] = 24 h, 1 day protectant, read-out: SEPTTR disease control, 1DP (1 Day Protectant)
[3] = 72 h, 3 day curative, read-out: SEPTTR disease control, 3DC (3 Day Curative)
[4] = 72 h, 3 day curative, read-out: PUCCRT disease control, 3DC (3 Day Curative)

Structure (SMILES)	pest or weed control at 100 ppm (Puccinia triticina; [1])	pest or weed control at 100 ppm (Zymoseptoria tritici; [2])	pest or weed control at 100 ppm (Zymoseptoria tritici; [3])	pest or weed control at 100 ppm (Puccinia triticina; [4])	pest or weed control at 121.5 g/ha (Puccinia triticina; [1])	pest or weed control at 121.5 g/ha (Puccinia triticina; [4])	pest or weed control at 121.5 g/ha (Zymoseptoria tritici; [2])	pest or weed control at 121.5 g/ha (Zymoseptoria tritici; [3])
C[C@@H]1OC(=O)[C@@H](NC(=O)c2ncccc2O)CCCC[C@H](CC2CCCC2)[C@H]1Oc1ccccc1 [Compound 120]	> 80%	< 80%	> 80%					
COc1ccnc(C(=O)N[C@H]2CCCC[C@H](Oc3ccccc3)[C@@H](Oc3ccccc3)[C@H](C)OC2=O)c1O [Compound 98]	> 80%	> 80%	< 80%	< 80%				
COc1ccnc(C(=O)N[C@H]2CCCC[C@H](Cc3ccccc3)[C@@H](OCC(C)C)[C@H](C)OC2=O)c1OCOC(C)=O [Compound 24]					> 80%	< 80%	> 80%	> 80%
CCOCC(=O)OCOc1c(OC)ccnc1C(=O)N[C@H]1CCCC[C@H](CC2CCCC2)[C@@H](OC(=O)C(C)C)[C@H](C)OC1=O [Compound 55]					> 80%	< 80%	< 80%	< 80%
CC[C@H]1CCOC[C@H](NC(=O)c2nccc(OC)c2OCOC(C)=O)C(=O)O[C@@H](C)[C@@H]1OCC(C)C [Compound 70]					> 80%	> 80%	> 80%	< 80%
COc1ccnc(C(=O)N[C@H]2CCCC[C@H](Oc3ccccc3)[C@@H](OCC(C)C)[C@H](C)OC2=O)c1O [Compound 90]	> 80%	> 80%	< 80%	< 80%				
COc1ccnc(C(=O)N[C@H]2CCCC[C@H](OCC(C)C)[C@@H](Oc3ccccc3)[C@H](C)OC2=O)c1O [Compound 93]	> 80%	> 80%	< 80%	> 80%				
CCCOC(=O)O[C@H]1CCCC[C@H](NC(=O)c2nccc(OC)c2O)C(=O)O[C@@H](C)[C@@H]1OCC(C)C [Compound 111]	< 80%	< 80%	> 80%	< 80%				
CC[C@H]1CCOC[C@H](NC(=O)c2nccc(OC)c2O)C(=O)O[C@@H](C)[C@@H]1OC(=O)c1ccccc1 [Compound 135]	> 80%	> 80%	> 80%	> 80%				
CCCO[C@H]1COCC[C@H](NC(=O)c2nccc(OC)c2OCOC(C)=O)C(=O)O[C@@H](C)[C@@H]1Oc1ccccc1 [Compound 41]					> 80%	> 80%	> 80%	> 80%
CCCCCO[C@H]1[C@H](C)OC(=O)[C@@H](NC(=O)c2nccc(OC)c2O)CCCC[C@@H]1OC(=O)c1ccccc1 [Compound 94]	> 80%	> 80%	< 80%	< 80%				
CCCO[C@@H]1[C@@H](CC2CCCC2)CCCC[C@H](NC(=O)c2nccc(OC)c2O)C(=O)O[C@H]1C [Compound 124]	< 80%	< 80%	< 80%	< 80%				
COc1ccnc(C(=O)N[C@H]2CCCC[C@@H]3OC(C)(C)O[C@H]3[C@H](C)OC2=O)c1OC(C)=O [Compound 29]					> 80%	> 80%	< 80%	> 80%
CCCO[C@@H]1[C@@H](CC2CCCC2)CCCC[C@H](NC(=O)c2nccc(OC)c2OC(C)=O)C(=O)O[C@H]1C [Compound 58]					> 80%	< 80%	< 80%	< 80%
CCCO[C@H]1CCCC[C@H](NC(=O)c2nccc(OC)c2OCOC(C)=O)C(=O)O[C@@H](C)[C@@H]1Oc1ccccc1 [Compound 23]					> 80%	> 80%	> 80%	> 80%
COc1ccnc(C(=O)N[C@H]2CCCC[C@H](Oc3ccccc3)[C@@H](OC3CCCC3)[C@H](C)OC2=O)c1O [Compound 109]	> 80%	> 80%	< 80%	< 80%				
CCCCCO[C@H]1[C@H](C)OC(=O)[C@@H](NC(=O)c2nccc(OC)c2OCOC(C)=O)CCCC[C@@H]1OC(=O)c1ccccc1 [Compound 15]	> 80%	> 80%	> 80%	> 80%	> 80%	< 80%	> 80%	> 80%
CCCO[C@@H]1[C@@H](CC2CCCC2)CCCC[C@H](NC(=O)c2nccc(OC)c2OCOC(C)=O)C(=O)O[C@H]1C [Compound 57]					> 80%	< 80%	< 80%	
COc1ccnc(C(=O)N[C@H]2COCC[C@H](Cc3ccc(F)cc3)[C@@H](OCC3CC3)[C@H](C)OC2=O)c1OCOC(C)=O [Compound 74]					> 80%	> 80%	> 80%	< 80%
COc1ccnc(C(=O)N[C@H]2CCCC[C@H](CC3CCCC3)[C@@H](OC)[C@H](C)OC2=O)c1OCOC(C)=O [Compound 61]					> 80%	> 80%	< 80%	< 80%
COc1ccnc(C(=O)N[C@H]2COCC[C@H](Cc3ccc(F)cc3)[C@@H](OCC3CC3)[C@H](C)OC2=O)c1O [Compound 133]	> 80%	< 80%	< 80%	> 80%				
COc1ccnc(C(=O)N[C@H]2CCCC[C@H](OC)[C@@H](OCC(C)C)[C@H](C)OC2=O)c1OC(C)=O [Compound 28]					> 80%	> 80%	< 80%	> 80%
COc1ccnc(C(=O)N[C@H]2CCCC[C@H](Cc3ccccc3)[C@@H](Oc3ccccc3)[C@H](C)OC2=O)c1O [Compound 128]	> 80%	> 80%	< 80%	> 80%				
CC[C@H]1CCOC[C@H](NC(=O)c2nccc(OC)c2O)C(=O)O[C@@H](C)[C@@H]1OCC(C)C [Compound 131]	> 80%		< 80%	> 80%				
CCCCCO[C@H]1[C@H](C)OC(=O)[C@@H](NC(=O)c2nccc(OC)c2O)CCCC[C@@H]1Oc1ccccc1 [Compound 96]	> 80%	< 80%	< 80%	< 80%				
COc1ccnc(C(=O)N[C@H]2COCC[C@H](Cc3ccc(F)cc3)[C@@H](Oc3ccccc3)[C@H](C)OC2=O)c1OCOC(=O)C(C)C [Compound 73]					> 80%	> 80%	> 80%	> 80%
